Tests used:
Assay type in all cases: in vivo
[1] = tested on: Vetch aphid (Megoura viciae); assay: Vetch aphid broad bean leaf disk test, mortality; details: foliar, 120 h, 5 days, adult aphids on broad bean leaf disks, read-out: mortality in comparison with untreated controls
Procedure: For evaluating control of vetch aphid (Megoura viciae) through contact or systemic means the test unit consisted of 24-well-microtiter plates containing broad bean leaf disks.
The compounds were formulated using a solution containing 75% v/v water and 25% v/v DMSO. Different concentrations of formulated compounds were sprayed onto the leaf disks at 2.5 μl, using a custom built micro atomizer, at two replications.
After application, the leaf disks were air-dried and 5-8 adult aphids placed on the leaf disks inside the microtiter plate wells. The aphids were then allowed to suck on the treated leaf disks and incubated at about 23±1° C. and about 50±5% relative humidity for 5 days. Aphid mortality and fecundity was then visually assessed.

[2] = tested on: Green Peach Aphid (Myzus persicae); assay: Green peach aphid spray test on bell pepper plants, mortality; details: 120 h, after 5 days, sprayed bell pepper plants, read-out: mortality in comparison with untreated controls
From the text: (§1) The active compounds were formulated in cyclohexanone as a 10,000 ppm solution supplied in tubes. The tubes were inserted into an automated electrostatic sprayer equipped with an atomizing nozzle and they served as stock solutions for which lower dilutions were made in 50% acetone:50% water (v/v). A nonionic surfactant (Kinetic®) was included in the solution at a volume of 0.01% (v/v).
Bell pepper plants at the first true-leaf stage were infested prior to treatment by placing heavily infested leaves from the main colony on top of the treatment plants. Aphids were allowed to transfer overnight to accomplish an infestation of 30-50 aphids per plant and the host leaves were removed. The infested plants were then sprayed by an automated electrostatic plant sprayer equipped with an atomizing spray nozzle. The plants were dried in the sprayer fume hood, removed, and then maintained in a growth room under fluorescent lighting in a 24-hr photoperiod at about 25° C. and about 20-40% relative humidity. Aphid mortality on the treated plants, relative to mortality on untreated control plants, was determined after 5 days.

[3] = tested on: Colorado Potato Beetle (Leptinotarsa decemlineata) (2nd instar larvae); assay: Colorado potato beetle foliar spray test on eggplant, mortality; details: 96 h, 4 days after treatment, Table E; for mortality at 1 ppm: Concentration 1 ppm; for mortality at 10 ppm: Concentration 10 ppm; for mortality at 30 ppm: Concentration 30 ppm
Procedure: as §1
Eggplants were grown 2 plants to a pot and were selected for treatment at the 1st true leaf stage. Test solutions were sprayed onto the foliage by an automated electrostatic plant sprayer equipped with an atomizing spray nozzle. The plants were dried in the sprayer fume hood and then removed from the sprayer. The treated foliage was then cut and removed from the pot and placed in a Petri dish lined with moistened filter paper. Five beetle larvae were introduced into each Petri dish and the dish was covered by a Petri dish lid. Petri dishes were maintained in a growth room at about 25° C. and about 20-40% relative humidity for 4 days, avoiding direct exposure to fluorescent light (24 hour photoperiod) to prevent trapping of heat inside the dishes. Mortality and reduced feeding were assessed 4 days after treatment, compared to untreated control plants.

[4] = tested on: Mediterranean Fruitfly (Ceratitis capitata); assay: Mediterranean fruitfly microtiter diet test, egg and larval mortality; details: 120 h, 5 days, insect diet, read-out: mortality in comparison with untreated controls
Procedure: For evaluating control of Mediterranean fruitfly (Ceratitis capitata) the test unit consisted of microtiter plates containing an insect diet and 50-80 C. capitata eggs.
(§2) The compounds were formulated using a solution containing 75% v/v water and 25% v/v DMSO. Different concentrations of formulated compounds were sprayed onto the insect diet at 5 μl, using a custom built micro atomizer, at two replications.
After application, microtiter plates were incubated at about 28±1° C. and about 80±5% relative humidity for 5 days. Egg and larval mortality was then visually assessed.

[5] = tested on: Southern Armyworm (Spodoptera eridiana); 2nd Instar Larvae; assay: Southern armyworm foliar spray test on lima bean, mortality; details: for mortality at 1 ppm: Concentration 1 ppm; for mortality at 1 ppm / mortality at 10 ppm / mortality at 30 ppm: southern armyworm, Table D; for mortality at 10 ppm: Concentration 10 ppm; for mortality at 30 ppm: Concentration 30 ppm; for mortality at 500 ppm: Spodoptera, 96 h, 4 days after treatment, lima bean foliage spray, read-out: mortality in comparison with untreated controls
Procedure: as §1
Lima bean plants (variety Sieva) were grown 2 plants to a pot and selected for treatment at the 1st true leaf stage. Test solutions were sprayed onto the foliage by an automated electrostatic plant sprayer equipped with an atomizing spray nozzle. The plants were dried in the sprayer fume hood and then removed from the sprayer. Each pot was placed into perforated plastic bags with a zip closure. About 10 to 11 armyworm larvae were placed into the bag and the bags zipped closed. Test plants were maintained in a growth room at about 25° C. and about 20-40% relative humidity for 4 days, avoiding direct exposure to fluorescent light (24 hour photoperiod) to prevent trapping of heat inside the bags. Mortality and reduced feeding were assessed 4 days after treatment, compared to untreated control plants.

[6] = tested on: Boll weevil (Anthonomus grandis); assay: Boll weevil microtiter diet test, egg and larval mortality; details: 120 h, 5 days, insect diet, read-out: mortality in comparison with untreated controls
Procedure: For evaluating control of boll weevil (Anthonomus grandis) the test unit consisted of 24-well-microtiter plates containing an insect diet and 20-30 A. grandis eggs.
The compounds were formulated using a solution containing 75% v/v water and 25% v/v DMSO. Different concentrations of formulated compounds were sprayed onto the insect diet at 20 μl, using a custom built micro atomizer, at two replications.
After application, microtiter plates were incubated at about 23±1° C. and about 50±5% relative humidity for 5 days. Egg and larval mortality was then visually assessed.

[7] = tested on: Diamond Backmoth (Plutella xylostella); assay: Diamond backmoth leaf-dip test, mortality; details: 72 hours after treatment, 3rd instar larvae on dipped cabbage leaves, read-out: mortality in comparison with untreated controls
Procedure: The active compound was dissolved at the desired concentration in a mixture of 1:1 (vol:vol) distilled water:aceteone. Surfactant (Alkamuls® EL 620) was added at a rate of 0.1% (vol/vol). The test solution was prepared at the day of use.
Leaves of cabbage were dipped in test solution and air-dried. Treated leaves were placed in petri dishes lined with moist filter paper and inoculated with ten 3rd instar larvae. Mortality was recorded 72 hours after treatment. Feeding damages were also recorded using a scale of 0-100%.

[8] = tested on: TOBACCO budworm (Heliothis virescens); assay: Tobacco budworm microtiter diet test, egg and larval mortality; details: 120 h, 5 days, insect diet, read-out: mortality in comparison with untreated controls
Procedure: as §2, with “For evaluating control of tobacco budworm (Heliothis virescens) the test unit consisted of 96-well-microtiter plates containing an insect diet and 15-25 H. virescens eggs. The” for “The”, “at 10” for “at 5”
After application, microtiter plates were incubated at about 28±1° C./and about 80±5% relative humidity for 5 days. Egg and larval mortality was then visually assessed.

[9] = tested on: Orchid Thrips (dichromothrips corbetti); assay: Orchid thrips floral-immersion test, mortality; details: 72 hours after treatment, adult thrips, read-out: mortality in comparison with untreated controls
Procedure: Dichromothrips corbetti adults used for bioassay were obtained from a colony maintained continuously under laboratory conditions. For testing purposes, the test compound was diluted in a 1:1 mixture of acetone:water (vol:vol), plus 0.01% vol/vol Alkamuls® EL 620 surfactant.
Thrips potency of each compound was evaluated by using a floral-immersion technique. Plastic petri dishes were used as test arenas. All petals of individual, intact or chid flowers were dipped into treatment solution and allowed to dry. Treated flowers were placed into individual petri dishes along with about 20 adult thrips. The petri dishes were then covered with lids. All test arenas were held under continuous light and a temperature of about 28° C. for duration of the assay. After 3 days, the numbers of live thrips were counted on each flower, and along inner walls of each petri dish. The percent mortality was recorded 72 hours after treatment.

[10] = tested on: Cowpea Aphid (Aphis Craccivora); assay: Cowpea aphid spray test on potted cowpea plants, mortality; details: after 72 hours, sprayed cowpea plants, read-out: mortality in comparison with untreated controls
Procedure: The active compound was dissolved at the desired concentration in a mixture of 1:1 (vol:vol) distilled water:acetone. Surfactant (Alkamuls® EL 620) is added at a rate of 0.1% (vol/vol). The test solution was prepared at the day of use.
Potted cowpea plants were colonized with approximately 50-100 aphids of various stages by manually transferring a leaf tissue cut from infested plant 24 hours before application. Plants were sprayed after the pest population has been recorded. Treated plants were maintained on light carts at about 28° C. Percent mortality was assessed after 72 hours.

| Compound | mortality at 2500 ppm [1] [%] | mortality at 2500 ppm [2] [%] | mortality at 1 ppm [3] [%] | mortality at 10 ppm [3] [%] | mortality at 30 ppm [3] [%] | mortality at 2500 ppm [4] [%] | mortality at 1 ppm [5] [%] | mortality at 10 ppm [5] [%] | mortality at 30 ppm [5] [%] | mortality at 500 ppm [5] [%] | mortality at 2500 ppm [6] [%] | mortality at 500 ppm [7] [%] | mortality at 2500 ppm [8] [%] | mortality at 500 ppm [9] [%] | mortality at 500 ppm [10] [%] |
| --- | --- | --- | --- | --- | --- | --- | --- | --- | --- | --- | --- | --- | --- | --- | --- |
| CNC(=O)CONC(=O)c1cc(Cl)cc(C)c1NC(=O)c1cc(Br)nn1-c1ncccc1Cl [Compound 1-3, 5-bromo-2-(3-chloro-pyridin-2-yl)-2H-pyrazole-3-carboxylic acid (4-chloro-2-methyl-6-methylcarbamoylmethoxycarbamoyl-phenyl)-amide] | > 75 | > 75 | 100 | 100 | 100 | > 75 | 100 | 100 | 100 | 100 | > 75 | 100 | > 75 |  |  |
| CNC(=O)CONC(=O)c1cc(Br)cc(Br)c1NC(=O)c1cc(Br)nn1-c1ncccc1Cl [Compound 1-10, 5-bromo-2-(3-chloro-pyridin-2-yl)-2H-pyrazole-3-carboxylic acid (2,4-dibromo-6-methylcarbamoylmethoxycarbamoyl-phenyl)-amide] | > 75 | > 75 |  |  |  | > 75 |  |  |  | 100 | > 75 | 100 | > 75 | > 75 | > 75 |
| Cc1cc(Cl)cc(C(=O)NNCC(=O)NCc2ccccc2)c1NC(=O)c1cc(Br)nn1-c1ncccc1Cl [Compound 1-11, 5-bromo-2-(3-chloro-pyridin-2-yl)-2H-pyrazole-3-carboxylic acid {2-[N′-(benzylcarbamoyl-methyl)-hydrazinocarbonyl]-4-chloro-6-methyl-phenyl}-amide] | > 75 | > 75 |  |  |  | > 75 |  |  |  | 100 | > 75 | 100 | > 75 |  |  |
| CONC(=O)c1cc(Cl)cc(C)c1NC(=O)c1cc(Br)nn1-c1ncccc1Cl [Compound X-1, 5-bromo-2-(3-chloro-pyridin-2-yl)-2H-pyrazole 3-carboxylic acid (4-chloro-2-methoxycarbamoyl-6-methyl-phenyl)amide, reference compound] |  |  | 0 | 100 | 100 |  | 0 | 100 | 100 |  |  |  |  |  |  |
